In PMC12363950 (bioRxiv, 2025):

Target: CRAF (Homo sapiens, UniProt P04049, Y340D/Y341D)

CCCS(=O)(=O)Nc1ccc(F)c(C(=O)c2c[nH]c3ncc(Cl)cc23)c1F [PLX4720]
X-ray crystal structure, 2.91 Å: The structure reveals clear electron density for both PLX4720 and CH5126766
